From US8852552B2, “Agents and methods for visualizing analytes” (priority 2010, dated 2014)

Tests used:
[1] = system: unrelated peptide with N-terminal biotin; test: Surface plasmon resonance, reference channel with unrelated biotinylated control peptide; assay type: binding; settings: 100 μM injected
Source text: The biotinylated peptide was immobilized on a sensor chip (Sensor Chip SA BiaCore) by non-covalent capture to streptavidin according to manufacturer instructions. An unrelated peptide with N-terminal biotin was coupled to a reference channel. […] At the end of the injection phase, the sensor surface was washed (Wash arrow FIG. 1A) with […] pH7.4, 0.15 M NaCl.

[2] = system: Peptide (NH2-)FLNCCPGCCMEP(-COOH) [SEQ ID No 6]; test: Complex formation with tetracysteine-tagged peptide in MOPS/MES/EDT buffer, LC-MS analysis; assay type: binding; settings: probe in DMSO + 1 mM peptide, stirred 10-30 minutes
Description: Experiments were performed according to Nature Protocols Vol.3 No.9, 1527-1534, (Adams & Tsien) with minor modifications.
Materials: Peptide (NH2—)[…](—COOH) [SEQ ID No 6], M.w: 1316.63, supplied by INNOVAGEN, Sweden, MOPS sodium salt FW: 231.2 CAS [71119-22-7], MES sodium salt FW: 164.16 CAS [19767-45-4], and EDT FW:94.2 CAS [540-63-6] were used as received.
HPLC analyses employed a Waters Alliance 2795 LC system, equipped with an XBridge C18 3.0×50 mm 3.5 μm column. The mass detector had polarity ES+/polarity ES-. Solvents, A: 0.1 M NH3 in milliQ water, B: MeOH. Gradient, A: 95% 0.1 min, 0.1-4 min A:95% to B:100%, 4.0-4.6 min B:100%.
The radiodetector employed was a Raytest Star (solid cell). Chromatography with radiodetection was performed using a Kromasil C18, 5μ 250×10 mm column, and an isocratic eluent composed of 35% acetonitrile in 50 mM ammonium acetate, at a flow rate of 2.0 mL/min.
To this solution was added 200 μL of 1 mM PSMXB-4 (in DMSO). […] The reaction mixture was stirred for 30 minutes. […] The mass peaks corresponded to dianionic and trianionic species.
To this solution was added 200 μL of 1 mM PSMXB-6 (in DMSO). […] The reaction mixture was stirred for 30 minutes. […] The mass peak corresponded to the dianionic species.
The reaction mixture is stirred for 10 minutes. […] The mass peak corresponded to the dianionic species. […] HPLC purification allowed isolation of the pure, tritiated complex.

COc1ccc2c(-c3ccc(F)cc3)c3cc([As]4SCCS4)c(=O)cc-3oc2c1[As]1SCCS1 [PSMXB-6, 2,5-di-(1,3,2-Dithiarsolan-2yl)-9(4-fluorophenyl)-6-methoxy-3-fluorone]
interaction with unrelated control peptide [1]: No interaction was detected | complex formation with peptide by LC-MS [2]: mass spectrum consistent with the complex

2,5-di-(1,3,2-Dithiarsolan-2yl)-9(4-fluorophenyl)-6-[^3H3]methoxy-3-fluorone [6-[^3H3CO]-PSMXB-6]
complex formation with peptide by LC-MS [2]: complete conversion into the complex

O=c1ccc2c(-c3ccc(F)cc3)c3ccc(O)c([As]4SCCS4)c3oc-2c1[As]1SCCS1 [PSMXB-4, 2,5-di-(1,3,2-dithiarsolan-2-yl)-9-(4-fluorophenyl)-6-hydroxy-3-fluorone]
complex formation with peptide by LC-MS [2]: mass spectrum consistent with the complex
